The source of these data is patent US10059695B2, “Cot modulators and methods of use thereof” (Gilead Sciences, Inc., priority 2016, dated 2018).

The subject of one assay is TNFα. The assay is described as follows: Cot Monocyte TNFα Cell Based Assay. As to conditions: LPS-stimulated cryopreserved human monocytes, TNFα by TR-FRET. As to the method: Example 23: Cot Monocyte TNFα Cell Based Assay
Cryopreserved human monocytes (Stem Cell Technologies) were thawed, diluted in RPMI with Glutamax (10 mM HEPES, 1× Pen-Strep, 55 μM β-mercaptoethanol, 1 mM Sodium pyruvate) media containing 10% FBS to 0.125×10^6 cells/ml and recovered at 37° C. for 2 hours. The cell suspension was then plated at a density of 5,000 cells/well onto black 384 well Greiner clear bottom plates. Plates were pre-spotted with test compounds and serially diluted in DMSO where 200 nL/well were delivered using the Echo 550 acoustic liquid dispenser (Labcyte®) for a final DMSO concentration of 0.5%. Plated cells were treated with compound for 1 hour at 37° C. Cells were then stimulated with 50 μg/ml of LPS (Sigma) excluding outside columns of plate used for unstimulated cell control wells. Cells were incubated for an additional 4 hours at 37° C. Cells were then spun out of the media and 5 μl of sample were taken and analyzed for total TNFα content using the TR-FRET Human TNFα detection system (CisBio). This system utilizes two labeled antibodies (cryptate and XL665) that bind to two different epitopes of the TNFα molecule and produce FRET signal proportional to the concentration of TNFα in the sample. Detection antibodies are mixed 50:50 and 5 μL were dispensed into each well. Plates were covered with clear seals and incubated at room temp overnight. The following morning plates were read using an Envision 2103 Multilabeled reader (PerkinElmer) with excitation/emission/FRET emission at 340 nm/615 nm/665 nm, respectively. Fluorescence intensities at 615 nm and 665 nm emission wavelengths were expressed as a ratio (665 nm/615 nm). Percent of control was calculated as follows: % Control=100×(RatioSample−Ratio0% stimulation)/(Ratio100% Stimulation−Ratio0% Stimulation) where unstimulated cells (0% stimulation) were the negative control and stimulated cells (100% stimulation) were used as the positive control.

A further assay has as its target Human Cot (Homo sapiens (Human), UniProt P41279). The assay is described as follows: High Throughput Cot Biochemical Assay (KinEASE TR-FRET). As to conditions: recombinant human Cot catalytic domain, 400 μM ATP. On the procedure:
Example 24: High Throughput Cot Biochemical Assay
Human Cot enzyme activity was measured using KinEASE (Cisbio), a time-resolved fluorescence resonance energy transfer (TR-FRET) immunoassay. In this assay, Cot-catalyzes the phosporylation of a XL665-labeled peptide substrate. Europium conjugated […] specific antibody binds the resulting phosphorylated peptide. Formation of phosphorylated peptide is quantified by TR-FRET with Europium as the donor and XL665 the acceptor in a 2-step endpoint assay. Purified recombinant human Cot catalytic domain (30-397 amino acids) was purchased from Carna Biosciences. In brief, test compounds serially diluted in DMSO were delivered into Proxy white, low volume, 384 well plates using the Echo 550 acoustic liquid dispenser (Labcyte®). Cot enzyme and substrates were dispensed into assay plates using a Multi-Flo (Bio-Tek Instruments). The standard 5 μL reaction mixture contained 400 μM ATP, 1 μM STK3 peptide, 5 nM of Cot in reaction buffer (10 mM MOPS, pH 7.0, 0.02% NaN3, 0.5 mg/mL BSA, 10 mM MgOAc, 1 mM DTT, 0.025% NP-40, 1.5% glycerol) and 0.1% DMSO. After 2.5 hrs of incubation at room temperature, 5 μL of Stop and Detect Solution (1:200 Europium Cryptate labeled anti-phosphorylated peptide antibody solution and 125 nM strepavidin-XL665 Tracer in a 50 mM Hepes pH 7.0 detection buffer containing sufficient EDTA) was added. The plate was then further incubated for 120 minutes at room temperature and read using an Envision 2103 Multilabeled reader (PerkinElmer) with excitation/emission/FRET emission at 340 nm/615 nm/665 nm, respectively. Fluorescence intensities at 615 nm and 665 nm emission wavelengths were expressed as a ratio (665 nm/615 nm).
On the technique in general: In TR-FRET formats the signal depends on donor and acceptor labels being close together.

Chain of Human Cot (P41279 30-397): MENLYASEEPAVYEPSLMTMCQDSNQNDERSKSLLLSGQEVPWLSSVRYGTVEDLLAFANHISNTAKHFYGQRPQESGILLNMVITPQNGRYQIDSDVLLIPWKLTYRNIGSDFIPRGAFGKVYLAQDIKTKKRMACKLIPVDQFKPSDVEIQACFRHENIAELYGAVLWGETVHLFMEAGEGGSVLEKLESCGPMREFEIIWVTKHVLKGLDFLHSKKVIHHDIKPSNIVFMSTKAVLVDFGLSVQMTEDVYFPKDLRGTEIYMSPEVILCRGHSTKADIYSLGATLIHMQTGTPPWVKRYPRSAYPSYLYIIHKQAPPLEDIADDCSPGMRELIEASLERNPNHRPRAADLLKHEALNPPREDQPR

Turning to `[2H][C@](Nc1cc(Br)c2ncnc(NCC(C)(C)C)c2c1)(c1ccc(F)cc1)c1cn(C2CC2)nn1` [I-15, (S)-8-bromo-N6-((1-cyclopropyl-1H-1,2,3-triazol-4-yl)(4-fluorophenyl)methyl-d)-N4-neopentylquinazoline-4,6-diamine], a half-maximal response in the assay on TNFα (EC50) required 0.082 µM. In addition, the IC50 (in general, the midpoint of a concentration-inhibition curve) on Human Cot was determined as 0.0026 µM.

For the compound `[2H][C@](Nc1cc(Cl)c2ncnc(NCC(C)(C)C)c2c1)(c1ccc(F)cc1)c1cn(C2(CF)CC2)nn1` [I-16, (S)-8-chloro-N^6-((1-(1-(fluoromethyl)cyclopropyl)-1H-1,2,3-triazol-4-yl)(4-fluorophenyl)methyl-d)-N^4-neopentylquinazoline-4,6-diamine], the EC50 (in general, the concentration needed to bring the measured effect to its halfway point) in the assay with TNFα was 0.046 µM. Moreover, the IC50 on Human Cot came out at 0.0031 µM.

`CC(C)(C)CNc1ncnc2c(C#N)cc(N[C@H](c3cn(C4(C(F)(F)F)CC4)nn3)c3cccc4ncsc34)cc12` [I-17, (S)-6-((benzo[d]thiazol-7-yl(1-(1-(trifluoromethyl)cyclopropyl)-1H-1,2,3-triazol-4-yl)methyl)amino)-4-(neopentylamino) quinazoline-8-carbonitrile] gave an EC50 with TNFα of 0.059 µM. Besides, at Human Cot, the IC50 stood at 0.0033 µM.

In the assay on TNFα, `CC(C)(C)CNc1ncnc2c(Br)cc(N[C@H](c3cn(C4(C(F)(F)F)CC4)nn3)c3cccc4ncsc34)cc12` [I-18, (S)-N^6-(benzo[d]thiazol-7-yl(1-(1-(trifluoromethyl)cyclopropyl)-1H-1,2,3-triazol-4-yl)methyl)-8-bromo-N^4-neopentylquinazoline-4,6-diamine] came in with an EC50 of 0.195 µM. Further, the IC50 on Human Cot was 0.008 µM.

Regarding `[2H][C@@](Nc1cc(C#N)c2ncnc(NCC(C)(C)C)c2c1)(c1cn(C2CC2)nn1)c1ccccc1Cl` [I-19, (S)-6-(((2-chlorophenyl)(1-cyclopropyl-1H-1,2,3-triazol-4-yl)methyl-d)amino)-4-(neopentylamino) quinazoline-8-carbonitrile], in the assay on TNFα, the EC50 was 0.02 µM. On Human Cot, the IC50 turned out to be 0.0024 µM.

`[2H][C@@](Nc1cc(C#N)c2ncnc(NCC(C)(C)C)c2c1)(c1cn(C2(C#N)CC2)nn1)c1ccccc1Cl` [I-20, (S)-6-(((2-chlorophenyl)(1-(1-cyanocyclopropyl)-1H-1,2,3-triazol-4-yl)methyl-d)amino)-4-(neopentylamino) quinazoline-8-carbonitrile]: in the assay with TNFα, it took 0.035 µM to reach a half-maximal effect (EC50). Besides, on Human Cot, the IC50 stood at 0.0033 µM.

For `Cc1nc(F)ccc1[C@H](Nc1cc(Cl)c2ncnc(NCC(C)(C)C)c2c1)c1cn(C2(C(F)F)CC2)nn1` [I-21, (S)-8-chloro-N^6-((1-(1-(difluoromethyl)cyclopropyl)-1H-1,2,3-triazol-4-yl)(6-fluoro-2-melhylpyridin-3-yl)methyl)-N^4-neopentylquinazoline-4,6-diamine], a half-maximal effect in the assay with TNFα (EC50) was put at 0.028 µM. For the same compound, the IC50 on Human Cot stood at 0.0019 µM.

Consider `Cc1nc(F)ccc1[C@H](Nc1cc(C#N)c2ncnc(NCC(C)(C)C)c2c1)c1cn(C2(C(F)F)CC2)nn1` [I-22, (S)-6-(((1-(1-(difluoromethyl)cyclopropyl)-1H-1,2,3-triazol-4-yl)(6-fluoro-2-methylpyridin-3-yl)methyl)amino)-4-(neopentylamino) quinazoline-8-carbonitrile], for which the response with TNFα was half-maximal at 0.036 µM (EC50). Further, the IC50 at Human Cot was 0.0017 µM.

In the assay on TNFα, `Cn1ccc2c([C@H](Nc3cc(C#N)c4ncnc(NCC(C)(C)C)c4c3)c3cn(C4(C(F)F)CC4)nn3)cccc2c1=O` [I-24, (S)-6-(((1-(1-(difluoromethyl)cyclopropyl)-1H-1,2,3-triazol-4-yl)(2-methyl-1-oxo-1,2-dihydroisoquinolin-5-yl)methyl)amino)-4-(neopentylamino) quinazoline-8-carbonitrile] returned an EC50 of 0.0113 µM. In addition, on Human Cot, the IC50 worked out at 0.0012 µM.

For the compound `Cn1ccc2c([C@H](Nc3cc(Cl)c4ncnc(NCC(C)(C)C)c4c3)c3cn(C4(C(F)F)CC4)nn3)cccc2c1=O` [I-25, (S)-5-(((8-chloro-4-(neopentylamino)quinazolin-6-yl)amino)(1-(1-(difluoromethyl)cyclopropyl)-1H-1,2,3-triazol-4-yl)methyl)-2-methylisoquinolin-1(2H)-one], in the assay on TNFα, the response was half-maximal at 0.0255 µM (EC50). The IC50 on Human Cot worked out at 0.0024 µM.

`Cn1ccc2c([C@H](Nc3cc(Cl)c4ncnc(NCC(C)(C)C)c4c3)c3cn(C45CC(C4)C5)nn3)cccc2c1=O` [I-27, (S)-5-((1-(bicyclo[1.1.1]pentan-1-yl)-1H-1,2,3-triazol-4-yl)((8-chloro-4-(neopentylamino)quinazolin-6-yl)amino)methyl)-2-methylisoquinolin-1(2H)-one] came in with an EC50 in the assay with TNFα of 0.0121 µM. The IC50 at Human Cot is 0.0017 µM.

As for `CCN1CCC(n2cc([C@@H](Nc3cc(Cl)c4ncnc(Nc5ccc(F)c(Cl)c5)c4c3)c3ccccc3)nn2)CC1` [II-4, (S)-8-chloro-N^4-(3-chloro-4-fluorophenyl)-N^6-((1-(1-ethylpiperidin-4-yl)-1H-1,2,3-triazol-4-yl)(phenyl)methyl) quinazoline-4,6-diamine], in the assay on TNFα, the EC50 was 0.254 µM. Further, the IC50 at Human Cot was determined as 0.0059 µM.

As to `Fc1ccc(Nc2ncnc3ccc(N[C@@H](c4ccc(Cl)cc4)c4cn(C5CCN(C6COC6)CC5)nn4)cc23)cc1Cl` [II-8, (S)-N4-(3-chloro-4-fluorophenyl)-N6-((4-chlorophenyl)(1-(1-(oxetan-3-yl)piperidin-4-yl)-1H-1,2,3-triazol-4-yl)methyl) quinazoline-4,6-diamine], the EC50 in the assay on TNFα came to 1.24 µM. For the same compound, the IC50 at Human Cot was 0.318 µM.

Take `Fc1ccc(Nc2ncnc3c(Cl)cc(N[C@@H](c4ccccc4)c4cn(C5CCNCC5)nn4)cc23)cc1Cl` [II-9, (S)-8-chloro-N4-(3-chloro-4-fluorophenyl)-N6-(phenyl(1-(piperidin-4-yl)-1H-1,2,3-triazol-4-yl)methyl) quinazoline-4,6-diamine]: the EC50 with TNFα was found to be 0.337 µM. Besides, on Human Cot, the IC50 is 0.0083 µM.

The compound `CCN1CCC(n2cc([C@@H](Nc3cc(Cl)c4ncnc(Nc5ccc(F)c(Cl)c5)c4c3)c3ccc(Cl)cc3)nn2)CC1` [II-10, (S)-8-chloro-N^4-(3-chloro-4-fluorophenyl)-N^6-((4-chlorophenyl)(1-(1-ethylpiperidin-4-yl)-1H-1,2,3-triazol-4-yl)methyl) quinazoline-4,6-diamine] came in with an EC50 in the assay on TNFα of 0.527 µM. For the same compound, the IC50 on Human Cot worked out at 0.017 µM.

The compound `[2H][C@](Nc1ccc2ncnc(Nc3cnc(F)c(F)c3)c2c1)(c1ccc(F)cc1)c1cn(C2CC2)nn1` [II-11, (S)-N^6-((1-cyclopropyl-1H-1,2,3-triazol-4-yl)(4-fluorophenyl)methyl-d)-N^4-(5,6-difluoropyridin-3-yl)quinazoline-4,6-diamine] came in with an EC50 with TNFα of 0.645 µM. Also, the IC50 on Human Cot was 0.074 µM.
